Data: patent US20240368214A1, “POSITIVE NMDA-MODULATING COMPOUNDS AND METHODS OF USE THEREOF” (SAGE THERAPEUTICS, INC., priority 2021, published 2024)
Read-outs that look alike come from different tables or passages of the source.

Target: T1, recombinant human GluN1/GluN2A receptor (Homo sapiens, UniProt Q05586+Q12879)
T1 construct: expressed in transfected cells; host or cells: HEK293, tetracycline-inducible expression
Experiment: Whole-cell patch clamp of mammalian cells (Syncropatch 384i), NMDA modulation
Type: cell-based
Details: HEK293 cells, human GluN1/GluN2A, glutamate 1 μM / glycine 100 μM, -80 mV, peak amplitude increase; for EC50: read-out: EC50
Outline: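 Modulation read as fold rise in peak current, (Icomp/Icontrol)−1, from 8 concentrations with ≥2 wells each, four-parameter fit. Compound pre-incubated 120 s then co-applied with 1 μM glutamate plus 100 μM glycine; tetracycline-inducible HEK293 GluN1/GluN2A cells clamped at −80 mV.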

T1 sequence (Q12879 23-1464, other chains not shown): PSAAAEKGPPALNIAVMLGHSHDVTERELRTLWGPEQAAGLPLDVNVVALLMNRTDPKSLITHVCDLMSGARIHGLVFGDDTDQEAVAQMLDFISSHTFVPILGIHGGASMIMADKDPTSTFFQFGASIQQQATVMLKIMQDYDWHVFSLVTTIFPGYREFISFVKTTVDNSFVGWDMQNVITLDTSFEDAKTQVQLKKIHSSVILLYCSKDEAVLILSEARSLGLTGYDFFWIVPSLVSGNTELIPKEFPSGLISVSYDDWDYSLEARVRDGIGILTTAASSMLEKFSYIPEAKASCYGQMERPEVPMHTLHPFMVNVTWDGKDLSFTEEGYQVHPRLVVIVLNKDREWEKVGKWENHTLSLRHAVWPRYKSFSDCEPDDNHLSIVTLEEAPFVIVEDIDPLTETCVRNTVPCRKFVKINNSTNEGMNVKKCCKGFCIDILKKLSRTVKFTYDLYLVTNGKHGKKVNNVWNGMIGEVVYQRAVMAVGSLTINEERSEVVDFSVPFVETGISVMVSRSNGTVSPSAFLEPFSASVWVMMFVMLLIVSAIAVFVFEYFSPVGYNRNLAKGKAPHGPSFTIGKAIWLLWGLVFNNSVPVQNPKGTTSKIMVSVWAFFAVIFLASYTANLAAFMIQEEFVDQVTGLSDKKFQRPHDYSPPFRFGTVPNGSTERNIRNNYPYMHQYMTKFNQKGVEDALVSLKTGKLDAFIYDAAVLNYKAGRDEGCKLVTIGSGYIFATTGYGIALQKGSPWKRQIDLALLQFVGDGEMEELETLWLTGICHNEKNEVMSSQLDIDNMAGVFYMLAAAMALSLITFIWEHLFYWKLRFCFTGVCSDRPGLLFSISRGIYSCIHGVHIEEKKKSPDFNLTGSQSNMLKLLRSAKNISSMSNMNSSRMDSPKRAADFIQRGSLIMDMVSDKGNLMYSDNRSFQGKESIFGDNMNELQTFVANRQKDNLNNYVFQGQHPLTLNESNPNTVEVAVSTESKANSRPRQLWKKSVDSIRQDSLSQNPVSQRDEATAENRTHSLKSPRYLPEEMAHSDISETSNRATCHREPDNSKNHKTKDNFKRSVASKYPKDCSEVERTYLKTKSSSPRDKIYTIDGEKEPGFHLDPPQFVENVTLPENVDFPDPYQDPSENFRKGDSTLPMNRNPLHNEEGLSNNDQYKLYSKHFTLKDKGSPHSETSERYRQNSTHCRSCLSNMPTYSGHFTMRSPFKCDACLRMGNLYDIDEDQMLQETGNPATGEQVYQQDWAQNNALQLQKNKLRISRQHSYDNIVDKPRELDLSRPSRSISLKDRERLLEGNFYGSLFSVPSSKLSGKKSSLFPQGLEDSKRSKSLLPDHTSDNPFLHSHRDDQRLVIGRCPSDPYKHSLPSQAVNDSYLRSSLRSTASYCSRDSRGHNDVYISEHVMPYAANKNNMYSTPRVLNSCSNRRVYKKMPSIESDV

Row | Structure (SMILES) | Emax (Table D-2) [%] | EC50 (Table D-2) [nM] | Emax (Table E-2) [%] | EC50 (Table E-2) [nM]
1 | CC[C@]1(O)CCC[C@@]2(C)[C@@H](CC[C@@H]3[C@@H]2CC[C@]2(C)[C@@H]([C@H](C)CC[C@@](C)(O)C(F)(F)F)CC[C@@H]32)C1 [Compound D-5, (1R,3aS,3bR,5aS,7S,10aS,10bS,12aR)-7-ethyl-10a,12a-dimethyl-1-((2R,5R)-6,6,6-trifluoro-5-hydroxy-5-methylhexan-2-yl)octadecahydrocyclohepta[a]cyclopenta[f]naphthalen-7-ol] | < 100 | 100 to 500 |  | 
2 | CC[C@@]1(O)CCC[C@@]2(C)[C@@H](CC[C@@H]3[C@@H]2CC[C@]2(C)[C@@H]([C@H](C)CC[C@@](C)(O)C(F)(F)F)CC[C@@H]32)C1 [Compound D-6, (1R,3aS,3bR,5aS,7R,10aS,10bS,12aR)-7-ethyl-10a,12a-dimethyl-1-((2R,5R)-6,6,6-trifluoro-5-hydroxy-5-methylhexan-2-yl)octadecahydrocyclohepta[a]cyclopenta[f]naphthalen-7-ol] | 100 to 200 | 1 to 100 |  | 
3 | CC[C@]1(O)CCC[C@@]2(C)[C@@H](CC[C@@H]3[C@@H]2CC[C@]2(C)[C@@H]([C@H](C)CC[C@](C)(O)C(F)(F)F)CC[C@@H]32)C1 [Compound D-7, (1R,3aS,3bR,5aS,7S,10aS,10bS,12aR)-7-ethyl-10a,12a-dimethyl-1-((2R,5S)-6,6,6-trifluoro-5-hydroxy-5-methylhexan-2-yl)octadecahydrocyclohepta[a]cyclopenta[f]naphthalen-7-ol] | 100 to 200 | 1 to 100 |  | 
4 | CC[C@]1(O)CCC[C@@]2(C)C(=CC[C@H]3[C@@H]4CC[C@H]([C@H](C)CCC(C)(C)O)[C@@]4(C)CC[C@@H]32)C1 [Compound D-9, (1R,3aS,3bS,7S,10aR,10bS,12aR)-7-ethyl-1-((R)-5-hydroxy-5-methylhexan-2-yl)-10a,12a-dimethyl-1,2,3,3a,3b,4,6,7,8,9,10,10a,10b,11,12,12a-hexadecahydrocyclohepta[a]cyclopenta[f]naphthalen-7-ol] | 100 to 200 | 100 to 500 |  | 
5 | C[C@H](CC[C@](C)(O)C(F)(F)F)[C@H]1CC[C@H]2[C@@H]3CC=C4C[C@](C)(O)CCC[C@]4(C)[C@H]3CC[C@]12C [Compound D-14, (1R,3aS,3bS,7R,10aR,10bS,12aR)-7,10a,12a-trimethyl-1-((2R,5S)-6,6,6-trifluoro-5-hydroxy-5-methylhexan-2-yl)-1,2,3,3a,3b,4,6,7,8,9,10,10a, 10b, 11,12,12a-hexadecahydrocyclohepta[a]cyclopenta[f]naphthalen-7-ol] |  | > 1000 |  | 
6 | C[C@H](CC[C@](C)(O)C(F)(F)F)[C@H]1CC[C@H]2[C@@H]3CC=C4C[C@@](C)(O)CCC[C@]4(C)[C@H]3CC[C@]12C [Compound D-15, (1R,3aS,3bS,7S,10aR,10bS,12aR)-7,10a,12a-trimethyl-1-((2R,5S)-6,6,6-trifluoro-5-hydroxy-5-methylhexan-2-yl)-1,2,3,3a,3b,4,6,7,8,9,10,10a,10b,11,12,12a-hexadecahydrocyclohepta[a]cyclopenta[f]naphthalen-7-ol] | < 100 | 100 to 500 |  | 
7 | CC[C@@]1(O)CCC[C@@]2(C)C(=CC[C@H]3[C@@H]4CC[C@H]([C@H](C)CC[C@](C)(O)C(F)(F)F)[C@@]4(C)CC[C@@H]32)C1 [Compound D-16, (1R,3aS,3bS,7R,10aR,10bS,12aR)-7-ethyl-10a,12a-dimethyl-1-((2R,5S)-6,6,6-trifluoro-5-hydroxy-5-methylhexan-2-yl)-1,2,3,3a,3b,4,6,7,8,9,10,10a,10b,11,12,12a-hexadecahydrocyclohepta[a]cyclopenta[f]naphthalen-7-ol] | < 100 | > 1000 |  | 
8 | CC[C@]1(O)CCC[C@@]2(C)C(=CC[C@H]3[C@@H]4CC[C@H]([C@H](C)CC[C@](C)(O)C(F)(F)F)[C@@]4(C)CC[C@@H]32)C1 [Compound D-17, (1R,3aS,3bS,7S,10aR,10bS,12aR)-7-ethyl-10a,12a-dimethyl-1-((2R,5S)-6,6,6-trifluoro-5-hydroxy-5-methylhexan-2-yl)-1,2,3,3a,3b,4,6,7,8,9,10,10a,10b,11,12,12a-hexadecahydrocyclohepta[a]cyclopenta[f]naphthalen-7-ol] | 100 to 200 | 100 to 500 |  | 
9 | CC[C@]1(O)CC[C@]2(C)C3=CC[C@]4(C)[C@@H]([C@H](C)CCCC(C)(C)O)CC[C@H]4[C@@H]3CC[C@H]2C1 [Compound E-1, (3S,5S,8S,10S,13R,14S,17R)-3-ethyl-17-((R)-6-hydroxy-6-methylheptan-2-yl)-10,13-dimethyl-2,3,4,5,6,7,8,10,12,13,14,15,16,17-tetradecahydro-1H-cyclopenta[a]phenanthren-3-ol] |  |  | < 100 | 1 to 100
10 | CC[C@]1(O)CC[C@]2(C)C3=CC[C@]4(C)[C@@H]([C@H](C)CC[C@@](C)(O)C(F)(F)F)CC[C@H]4[C@@H]3CC[C@H]2C1 [Compound E-2, (3S,5S,8S,10S,13R,14S,17R)-3-ethyl-10,13-dimethyl-17-((2R,5R)-6,6,6-trifluoro-5-hydroxy-5-methylhexan-2-yl)-2,3,4,5,6,7,8,10,12,13,14,15,16,17-tetradecahydro-1H-cyclopenta[a]phenanthren-3-ol] |  |  | > 200 | 100 to 500
11 | CC[C@]1(O)CC[C@]2(C)C3=CC[C@]4(C)[C@@H]([C@H](C)CC[C@](C)(O)C(F)(F)F)CC[C@H]4[C@@H]3CC[C@H]2C1 [Compound E-3, (3S,5S,8S,10S,13R,14S,17R)-3-ethyl-10,13-dimethyl-17-((2R,5S)-6,6,6-trifluoro-5-hydroxy-5-methylhexan-2-yl)-2,3,4,5,6,7,8,10,12,13,14,15,16,17-tetradecahydro-1H-cyclopenta[a]phenanthren-3-ol] |  |  | > 200 | 1 to 100
12 | CC[C@]1(O)CC[C@]2(C)C3=CC[C@]4(C)[C@@H]([C@H](C)CC[C@@H](O)C(C)C)CC[C@H]4[C@@H]3CC[C@H]2C1 [Compound E-4, (3S,5S,8S,10S,13R,14S,17R)-3-ethyl-17-((2R,5R)-5-hydroxy-6-methylheptan-2-yl)-10,13-dimethyl-2,3,4,5,6,7,8,10,12,13,14,15,16,17-tetradecahydro-1H-cyclopenta[a]phenanthren-3-ol] |  |  | > 200 | 1 to 100
13 | CC[C@]1(O)CC[C@]2(C)C3=CC[C@]4(C)[C@@H]([C@H](C)CCC(C)(C)O)CC[C@H]4[C@@H]3CC[C@H]2C1 [Compound E-5, (3S,5S,8S,10S,13R,14S,17R)-3-ethyl-17-((R)-5-hydroxy-5-methylhexan-2-yl)-10,13-dimethyl-2,3,4,5,6,7,8,10,12,13,14,15,16,17-tetradecahydro-1H-cyclopenta[a]phenanthren-3-ol] |  |  | 100 to 200 | 1 to 100
14 | CC[C@]1(O)CC[C@]2(C)C3=CC[C@]4(C)[C@@H]([C@H](C)CCC5(O)CCCC5)CC[C@H]4[C@@H]3CC[C@H]2C1 [Compound E-6, (3S,5S,8S,10S,13R,14S,17R)-3-ethyl-17-((R)-4-(1-hydroxycyclopentyl)butan-2-yl)-10,13-dimethyl-2,3,4,5,6,7,8,10,12,13,14,15,16,17-tetradecahydro-1H-cyclopenta[a]phenanthren-3-ol] |  |  | > 200 | 1 to 100
15 | CC[C@]1(O)CC[C@]2(C)C3=CC[C@]4(C)[C@@H]([C@H](C)CCC5(O)CC5)CC[C@H]4[C@@H]3CC[C@H]2C1 [Compound E-7, (3S,5S,8S,10S,13R,14S,17R)-3-ethyl-17-((R)-4-(1-hydroxycyclopropyl)butan-2-yl)-10,13-dimethyl-2,3,4,5,6,7,8,10,12,13,14,15,16,17-tetradecahydro-1H-cyclopenta[a]phenanthren-3-ol] |  |  | > 200 | 100 to 500
16 | CC[C@]1(O)CC[C@]2(C)C3=CC[C@]4(C)[C@@H]([C@H](C)CC[C@@]5(O)CCOC5)CC[C@H]4[C@@H]3CC[C@H]2C1 [Compound E-8, (R)-3-((R)-3-((3S,5S,8S,10S,13R,14S,17R)-3-ethyl-3-hydroxy-10,13-dimethyl-2,3,4,5,6,7,8,10,12,13,14,15,16,17-tetradecahydro-1H-cyclopenta[a]phenanthren-17-yl)butyl)tetrahydrofuran-3-ol] |  |  | > 200 | 1 to 100
17 | CC[C@]1(O)CC[C@]2(C)C3=CC[C@]4(C)[C@@H]([C@H](C)CC[C@]5(O)CCOC5)CC[C@H]4[C@@H]3CC[C@H]2C1 [Compound E-9, (S)-3-((R)-3-((3S,5S,8S,10S,13R,14S,17R)-3-ethyl-3-hydroxy-10,13-dimethyl-2,3,4,5,6,7,8,10,12,13,14,15,16,17-tetradecahydro-1H-cyclopenta[a]phenanthren-17-yl)butyl)tetrahydrofuran-3-ol] |  |  | > 200 | 1 to 100
18 | C[C@H](CCCO)[C@H]1CC[C@H]2[C@@H]3CC[C@H]4C[C@@](C)(O)CC[C@]4(C)C3=CC[C@]12C [Compound E-10, (3S,5S,8S,10S,13R,14S,17R)-17-((R)-5-hydroxypentan-2-yl)-3,10,13-trimethyl-2,3,4,5,6,7,8,10,12,13,14,15,16,17-tetradecahydro-1H-cyclopenta[a]phenanthren-3-ol] |  |  | < 100 | 1 to 100
